Laboratory results published in paper PMC9133015 (Nature Communications, 2022).
Where “and” joins values, the source holds several entries; their conditions need not be identical. Identical values can stand only once. Like-named read-outs stand apart in the source and are kept apart here.

Assay: Pharmacokinetic profiles
Type: in vivo
Conditions: SD rats; for MRT inf: read-out: MRT0-∞
[1] = Sprague-Dawley, rat, serum, iv, 1 mg/kg, IV 1 mg/kg, read-out: Con. Mean

Question: For `CCN1CCN(C(=O)c2ccc(Nc3ncc(F)c(-c4ccc5nc(N(C)C)sc5c4)n3)nc2)CC1` [YK-2-69], which “Con. (individual rats NO.1-3)” value (PO 10 mg/kg, 0.25 h, 10 mg/kg) is on record?
Answer: 82.5 ng/mL and 106 ng/mL

Question: What about the “Con. (individual rats NO.1-3)” value (PO 10 mg/kg, 0.5 h, 10 mg/kg) of the same compound?
Answer: 228 ng/mL and 221 ng/mL

Question: What about the “Con. (individual rats NO.1-3)” value (PO 10 mg/kg, 1 h, 10 mg/kg) of the same compound?
Answer: 437 ng/mL and 376 ng/mL

Question: And the “Con. (individual rats NO.1-3)” value (PO 10 mg/kg, 2 h, 10 mg/kg)?
Answer: 729 ng/mL and 559 ng/mL

Question: And the “Con. (individual rats NO.1-3)” value (PO 10 mg/kg, 4 h, 10 mg/kg)?
Answer: 695 ng/mL and 609 ng/mL

Question: What about the “Con. (individual rats NO.1-3)” value (PO 10 mg/kg, 6 h, 10 mg/kg) of the same compound?
Answer: 538 ng/mL and 544 ng/mL

Question: What about the “Con. (individual rats NO.1-3)” value (PO 10 mg/kg, 8 h, 10 mg/kg) of the same compound?
Answer: 435 ng/mL and 507 ng/mL

Question: And the “Con. (individual rats NO.1-3)” value (PO 10 mg/kg, 12 h, 10 mg/kg)?
Answer: 220 ng/mL and 279 ng/mL

Question: What about the “Con. (individual rats NO.1-3)” value (PO 10 mg/kg, 24 h, 10 mg/kg) of the same compound?
Answer: 38.4 ng/mL and 66 ng/mL

Question: And the concentration at 0.033 h (SD, rat, serum, iv, 1 mg/kg, IV 1 mg/kg, read-out: Con. (individual rats NO.1-3))?
Answer: 1090 ng/mL

Question: What about the concentration at 2 h (SD, rat, serum, iv, 1 mg/kg, IV 1 mg/kg, 2 h, read-out: Con. (individual rats NO.1-3)) of the same compound?
Answer: 209 ng/mL

Question: What about the concentration at 2 h (SD, rat, serum, iv, 1 mg/kg, IV 1 mg/kg, 2 h, read-out: Con. Mean) of the same compound?
Answer: 194 ng/mL

Question: What about the concentration at 4 h (SD, rat, serum, iv, 1 mg/kg, IV 1 mg/kg, 4 h, read-out: Con. (individual rats NO.1-3)) of the same compound?
Answer: 97 ng/mL

Question: What about the concentration at 4 h (SD, rat, serum, iv, 1 mg/kg, IV 1 mg/kg, 4 h, read-out: Con. Mean) of the same compound?
Answer: 95.2 ng/mL

Question: What about the concentration at 6 h (SD, rat, serum, iv, 1 mg/kg, IV 1 mg/kg, 6 h, read-out: Con. (individual rats NO.1-3)) of the same compound?
Answer: 57.8 ng/mL

Question: What about the concentration at 6 h (SD, rat, serum, iv, 1 mg/kg, IV 1 mg/kg, 6 h, read-out: Con. Mean) of the same compound?
Answer: 62 ng/mL

Question: And the concentration at 8 h (SD, rat, serum, iv, 1 mg/kg, IV 1 mg/kg, 8 h, read-out: Con. (individual rats NO.1-3))?
Answer: 43 ng/mL

Question: And the concentration at 8 h (SD, rat, serum, iv, 1 mg/kg, IV 1 mg/kg, 8 h, read-out: Con. Mean)?
Answer: 41.5 ng/mL

Question: What about the concentration at 12 h (SD, rat, serum, iv, 1 mg/kg, IV 1 mg/kg, 12 h, read-out: Con. (individual rats NO.1-3)) of the same compound?
Answer: 16.4 ng/mL

Question: What about the concentration at 12 h (SD, rat, serum, iv, 1 mg/kg, IV 1 mg/kg, 12 h, read-out: Con. Mean) of the same compound?
Answer: 16.9 ng/mL

Question: What about the concentration at 0.083 h (SD, rat, serum, po, 10 mg/kg, PO 10 mg/kg, read-out: Con. (individual rats NO.1-3)) of the same compound?
Answer: 9.72 ng/mL

Question: What about the concentration at 0.083 h (SD, rat, serum, po, 10 mg/kg, PO 10 mg/kg, read-out: Con. Mean) of the same compound?
Answer: 9.82 ng/mL

Question: What about the concentration at 0.25 h (SD, rat, serum, po, 10 mg/kg, PO 10 mg/kg, 0.25 h, read-out: Con. (individual rats NO.1-3)) of the same compound?
Answer: 90.7 ng/mL

Question: And the concentration at 0.25 h (SD, rat, serum, po, 10 mg/kg, PO 10 mg/kg, 0.25 h, read-out: Con. Mean)?
Answer: 93.1 ng/mL

Question: And the concentration at 0.5 h (SD, rat, serum, po, 10 mg/kg, PO 10 mg/kg, 0.5 h, read-out: Con. (individual rats NO.1-3))?
Answer: 210 ng/mL

Question: And the concentration at 0.5 h (SD, rat, serum, po, 10 mg/kg, PO 10 mg/kg, 0.5 h, read-out: Con. Mean)?
Answer: 220 ng/mL

Question: What about the concentration at 1 h (SD, rat, serum, po, 10 mg/kg, PO 10 mg/kg, 1 h, read-out: Con. (individual rats NO.1-3)) of the same compound?
Answer: 386 ng/mL

Question: What about the concentration at 1 h (SD, rat, serum, po, 10 mg/kg, PO 10 mg/kg, 1 h, read-out: Con. Mean) of the same compound?
Answer: 400 ng/mL

Question: And the concentration at 2 h (SD, rat, serum, po, 10 mg/kg, PO 10 mg/kg, 2 h, read-out: Con. (individual rats NO.1-3))?
Answer: 600 ng/mL

Question: And the concentration at 2 h (SD, rat, serum, po, 10 mg/kg, PO 10 mg/kg, 2 h, read-out: Con. Mean)?
Answer: 629 ng/mL

Question: And the concentration at 4 h (SD, rat, serum, po, 10 mg/kg, PO 10 mg/kg, 4 h, read-out: Con. (individual rats NO.1-3))?
Answer: 684 ng/mL

Question: And the concentration at 4 h (SD, rat, serum, po, 10 mg/kg, PO 10 mg/kg, 4 h, read-out: Con. Mean)?
Answer: 663 ng/mL

Question: And the concentration at 6 h (SD, rat, serum, po, 10 mg/kg, PO 10 mg/kg, 6 h, read-out: Con. (individual rats NO.1-3))?
Answer: 685 ng/mL

Question: And the concentration at 6 h (SD, rat, serum, po, 10 mg/kg, PO 10 mg/kg, 6 h, read-out: Con. Mean)?
Answer: 589 ng/mL

Question: What about the concentration at 8 h (SD, rat, serum, po, 10 mg/kg, PO 10 mg/kg, 8 h, read-out: Con. (individual rats NO.1-3)) of the same compound?
Answer: 507 ng/mL

Question: And the concentration at 8 h (SD, rat, serum, po, 10 mg/kg, PO 10 mg/kg, 8 h, read-out: Con. Mean)?
Answer: 483 ng/mL

Question: What about the concentration at 12 h (SD, rat, serum, po, 10 mg/kg, PO 10 mg/kg, 12 h, read-out: Con. (individual rats NO.1-3)) of the same compound?
Answer: 309 ng/mL

Question: What about the concentration at 12 h (SD, rat, serum, po, 10 mg/kg, PO 10 mg/kg, 12 h, read-out: Con. Mean) of the same compound?
Answer: 269 ng/mL

Question: And the concentration at 24 h (SD, rat, serum, po, 10 mg/kg, PO 10 mg/kg, 24 h, read-out: Con. (individual rats NO.1-3))?
Answer: 67.9 ng/mL

Question: What about the concentration at 24 h (SD, rat, serum, po, 10 mg/kg, PO 10 mg/kg, 24 h, read-out: Con. Mean) of the same compound?
Answer: 57.4 ng/mL

Question: And the concentration at 0.033 h [1]?
Answer: 974 ng/mL

Question: And the concentration at 0.083 h (Sprague-Dawley, rat, serum, iv, 1 mg/kg, IV 1 mg/kg, read-out: Con. (individual rats NO.1-3))?
Answer: 811 ng/mL

Question: What about the concentration at 0.083 h [1] of the same compound?
Answer: 781 ng/mL

Question: And the concentration at 0.25 h (Sprague-Dawley, rat, serum, iv, 1 mg/kg, IV 1 mg/kg, 0.25 h, read-out: Con. (individual rats NO.1-3))?
Answer: 560 ng/mL

Question: What about the concentration at 0.25 h (Sprague-Dawley, rat, serum, iv, 1 mg/kg, IV 1 mg/kg, 0.25 h, read-out: Con. Mean) of the same compound?
Answer: 524 ng/mL

Question: What about the concentration at 0.5 h (Sprague-Dawley, rat, serum, iv, 1 mg/kg, IV 1 mg/kg, 0.5 h, read-out: Con. (individual rats NO.1-3)) of the same compound?
Answer: 399 ng/mL

Question: What about the concentration at 0.5 h (Sprague-Dawley, rat, serum, iv, 1 mg/kg, IV 1 mg/kg, 0.5 h, read-out: Con. Mean) of the same compound?
Answer: 421 ng/mL

Question: What about the concentration at 1 h (Sprague-Dawley, rat, serum, iv, 1 mg/kg, IV 1 mg/kg, 1 h, read-out: Con. (individual rats NO.1-3)) of the same compound?
Answer: 265 ng/mL

Question: And the concentration at 1 h (Sprague-Dawley, rat, serum, iv, 1 mg/kg, IV 1 mg/kg, 1 h, read-out: Con. Mean)?
Answer: 310 ng/mL

Question: And the concentration at 12 h (rat, in vivo, IV 1 mg/kg, 12 h, read-out: Con. (individual rats NO.1-3))?
Answer: 19.8 ng/mL

Question: What about the AUC(0-inf) (rat, serum, IV 1 mg/kg) of the same compound?
Answer: 1500 ng·h/mL

Question: And the Cmax (rat, serum, IV 1 mg/kg)?
Answer: 974 ng/mL

Question: What about the Tmax (rat, serum, IV 1 mg/kg) of the same compound?
Answer: 0.0333 h

Question: What about the clearance (rat, serum, IV 1 mg/kg) of the same compound?
Answer: 11.2 mL/min/kg

Question: And the half-life (rat, serum, IV 1 mg/kg)?
Answer: 3 h

Question: What about the MRT inf (rat, serum, IV 1 mg/kg) of the same compound?
Answer: 3.5 h

Question: What about the AUC(0-inf) (rat, serum, PO 10 mg/kg) of the same compound?
Answer: 8380 ng·h/mL

Question: What about the Cmax (rat, serum, PO 10 mg/kg) of the same compound?
Answer: 674 ng/mL

Question: What about the Tmax (rat, serum, PO 10 mg/kg) of the same compound?
Answer: 4 h

Question: And the half-life (rat, serum, PO 10 mg/kg)?
Answer: 5 h

Question: And the bioavailability (rat, serum, PO 10 mg/kg vs IV 1 mg/kg, read-out: F (oral bioavailability))?
Answer: 56%

Question: And the MRT inf (rat, serum, PO 10 mg/kg)?
Answer: 8.9 h
